Assay results from patent publication US8450308B2 (Vitae Pharmaceuticals, Inc., priority 2008, dated 2013).

Assay: BACE cell assay: soluble Amyloid Beta 1-40 (Aβ 1-40) in culture media of H4-APPsw cells
Type: cell-based
Settings: in vitro cell activity, H4-APPsw cells, secreted Aβ 1-40, overnight treatment; read-out: IC50
Method: H4 neuroglioma cell line that stably expresses Amyloid Precursor Protein (APP) containing the KM-NL Swedish mutation (H4-APPsw) was generated. For the assay, cells are treated overnight in the presence of inhibitor and the culture media are subjected to ELISA analysis of soluble Amyloid Beta 1-40 (Aβ 1-40).
H4 neuroglioma cell line was cultured in DMEM with 10% FBS and 1% penicillin/streptomycin (Culture Medium) at 37° C., 5% CO2. […] 24 hrs after transfection, the cells were replaced into three new plates (150 mm) in fresh Culture Medium with 250 ug/ml Zeocin. […] The levels of APPsw expression were analyzed by immunoblotting and the production of Aβ 1-40 was detected by ELISA of culture supernatants. The selected clones are maintained in Culture Medium with 250 μg/ml Zeocin and routinely split in 3-4 days to maintain 20-80% confluence.
Split cells. Split H4-APPsw cells in Culture Medium and culture overnight such that cells will be ˜80% confluent next morning.
Create Compound Dilution Plate. After determining the desired final concentration of compound to be tested, create a 500× dilution plate. Add DMSO, but not inhibitor, to each well of Column 1. […] Add compounds of interest at 500× desired final concentration to wells A3-A10. Add DMSO, but not inhibitor, to each well of Columns 11 and 12. Dilute contents of Row A 1:3 in Row B. then continue through Rows C—H.
Create Media Plate. To create a 2× solution of compound in media, add 996 μL Culture Medium to each well of a 96-well 2 ml deep well plate (Media Plate) in biosafety hood. Add 4 μL 5 mM control compound to Media Plate wells A1-D1 for determination of full inhibition.
Add media to Cell Plate. With a multichannel pipettor, mix each well of Media Plate several times to insure homogeneity. Add 100 μL of mixture to Black polymer bottom P-D-L plates. Next, place Medium Plate and Cell Plate in the incubator.
Add cells to Cell Plate. Trypsinize and count H4-APPsw cells. Dilute cells 6×10^5 cells/ml in Culture Medium and remove Cell Plate from incubator. Vortex cells to homogeneity, then using a multichannel repeating pipettor, add 100 μL cell suspension to Cell Plate, adding cells from Row H to Row A. Place Cell Plate in incubator.
Change media in Cell Plate. After 5 h, check Cell Plate by microscope to insure cells are attached. In culture hood, remove media from Cell Plate using multichannel repeating pipettor. Add 100 μl Culture Medium to each well. Remove Media Plate from incubator and mix with pipettor as previous. Add 100 μl from each well of Media Plate to corresponding well in Cell Plate. Place Cell Plate in incubator overnight.
Perform ELISA to determine levels of secreted Aβ 1-40. After 16 h incubation, spin Cell Plate for 8 min at 1200 rpm. The primary reading of Aβ 1-40 levels is done using PerkinElmer AlphaLISA technology. Follow the manufacturer's protocol for performing AlphaLISA in a white ½ area Optiwell plate using Row 12 for peptide standard (1:2 dilutions, starting at 15 ng/ml). Data are acquired using PerkinElmer Fusion-Alpha FP-HT, Alpha protocol (Count Time 0.6 s, Count Time Ratio 30%:70%).
Export data from Fusion using Columnar Report format into a separate file for each plate. Upload data into Activity Base using RIA-DOSE-RESPONSE protocol (Version 1). Data from at least eight doses were fitted to a four parameter logistical model using XLfit software to determine potency.

IC50 [µM]	SMILES
0.001 to 0.1	CN1C(=O)C2(CC(C3CCOC(C)(C)C3)Oc3ccc(-c4cc(C#N)cc(C#N)c4)cc32)N=C1N (stereo not drawn) [Compound 185]
0.001 to 0.1	COc1cc(Cl)cc(-c2ccc3c(c2)[C@]2(C[C@]4(CCCOC4)O3)N=C(N)N(C)C2=O)c1 [Compound 214]
1 to 5	CN1OC2(CC(C3CCCc4ccccc43)Oc3ccc(-c4cc(Cl)cc(C#N)c4)cc32)N=C1N (stereo not drawn) [Compound 208]
0.1 to 0.5	CN1C(=O)[C@@]2(C[C@]3(CCCOC3)Oc3ccc(-c4cc(F)cc(Cl)c4)cc32)N=C1N [Compound 215]
0.5 to 1	CN1OC2(CC3(CCCc4ccccc4C3)Oc3ccc(-c4cccc(Cl)c4)cc32)N=C1N (stereo not drawn) [Compound 189]
0.1 to 0.5	CN1C(=O)[C@@]2(C[C@]3(CCCOC3)Oc3ccc(-c4cccc(OC(F)(F)F)c4)cc32)N=C1N [Compound 262]
1 to 5	CN1OC2(CC(C3CCOC(C)(C)C3)Oc3ccc(-c4cccc(Cl)c4)cc32)N=C1N (stereo not drawn) [Compound 264]
0.1 to 0.5	CN1OC2(CC(C3CCOC(C)(C)C3)Oc3ccc(-c4cc(C#N)cc(C#N)c4)cc32)N=C1N (stereo not drawn) [Compound 248]
1 to 5	CN1OC2(CC(C3COCc4ccccc43)Oc3ccc(-c4cccc(C#N)c4)cc32)N=C1N (stereo not drawn) [Compound 204]
1 to 5	CN1OC2(CC(C3CCCc4ccccc43)Oc3ccc(-c4cc(F)cc(C#N)c4)cc32)N=C1N (stereo not drawn) [Compound 198]
0.001 to 0.1	CN1C(=O)C2(CC3(CCCc4ccccc4C3)Oc3ccc(-c4cccc(C#N)c4)cc32)N=C1N (stereo not drawn) [Compound 179]
0.5 to 1	C[C@@H]1CC[C@@]2(CO1)CC1(N=C(N)N(C)O1)c1cc(-c3cccc(C#N)c3)ccc1O2 (stereo partly drawn) [Compound 275, 3-(3″-amino-2″-methyl-4″,5″-dihydro-2″H-spiro(spiro(chroman-2,3′-[(2R,6R/2S,6S)-2,4,5,6-tetrahydro-6-methyl-pyran])-(4S/4S)-4,5″-[1,2,4]oxadiazole)-6-yl)benzonitrile]
0.5 to 1	CN1C(=O)[C@@]2(C[C@@H](C3CCCc4ccccc43)Oc3ccc(-c4cccc(C#N)c4)cc32)N=C1N (stereo partly drawn) [Compound 245]
0.5 to 1	CC1CC[C@@]2(CO1)C[C@]1(N=C(N)N(C)O1)c1cc(-c3cc(F)cc(Cl)c3)ccc1O2 (stereo partly drawn) [Compound 232]
0.5 to 1	CN1OC2(CC(C3CCOC(C)(C)C3)Oc3ccc(-c4cc(C#N)ccc4F)cc32)N=C1N (stereo not drawn) [Compound 261]
0.001 to 0.1	CN1C(=O)C2(CC(C3CCOC(C)(C)C3)Oc3ccc(-c4cc(Cl)cc(C#N)c4)cc32)N=C1N (stereo not drawn) [Compound 183]
0.5 to 1	CN1O[C@]2(C[C@@]3(CCCc4ccccc4C3)Oc3ccc(-c4cccc(C#N)c4)cc32)N=C1N [Compound 228]
0.1 to 0.5	CN1O[C@@]2(C[C@]3(CCCc4ccccc4C3)Oc3ccc(-c4cccc(C#N)c4)cc32)N=C1N [Compound 205]
0.001 to 0.1	COc1cc(C#N)cc(-c2ccc3c(c2)C2(CC4(CCCOC4)O3)N=C(N)N(C)C2=O)c1 (stereo not drawn) [Compound 223]
5 to 10	CN1OC2(CC(C3CCCc4ccccc43)Oc3ccc(-c4cc(F)cc(C(F)(F)F)c4)cc32)N=C1N (stereo not drawn) [Compound 269]
0.1 to 0.5	Cc1ccc(C#N)cc1-c1ccc2c(c1)[C@]1(C[C@]3(CCCOC3)O2)N=C(N)N(C)C1=O [Compound 277]
0.001 to 0.1	CN1C(=O)C2(CC(C3CCOC(C)(C)C3)Oc3ccc(-c4cc(F)cc(C#N)c4)cc32)N=C1N (stereo not drawn) [Compound 194]
0.1 to 0.5	CN1C(=O)C2(C[C@H](C3CCOC(C)(C)C3)Oc3ccc(-c4cccc(F)c4)cc32)N=C1N (stereo partly drawn) [Compound 241]
0.1 to 0.5	CN1OC2(CC3(CCCc4ccccc4C3)Oc3ccc(-c4ccc(F)c(C#N)c4)cc32)N=C1N (stereo not drawn) [Compound 199]
5 to 10	COc1cc(Cl)cc(-c2ccc3c(c2)C2(CC(C4CCCc5ccccc54)O3)N=C(N)N(C)O2)c1 (stereo not drawn) [Compound 278]
0.5 to 1	CC1CC[C@@]2(CO1)C[C@]1(N=C(N)N(C)O1)c1cc(-c3cccc(Cl)c3)ccc1O2 (stereo partly drawn) [Compound 236]
0.1 to 0.5	CN1OC2(C[C@@]3(CCCc4ccccc4C3)Oc3ccc(-c4cccc(C#N)c4)cc32)N=C1N (stereo partly drawn) [Compound 251]

IC50 [µM]	SMILES
0.1 to 0.5	CN1OC2(CC(C3CCCc4ccccc43)Oc3ccc(-c4cc(C#N)cc(C#N)c4)cc32)N=C1N (stereo not drawn) [Compound 180]
0.1 to 0.5	CN1O[C@]2(C[C@H](C3CCOC(C)(C)C3)Oc3ccc(-c4cccc(C#N)c4)cc32)N=C1N (stereo partly drawn) [Compound 258]
0.001 to 0.1	CN1C(=O)C2(CC(C3CCOC(C)(C)C3)Oc3ccc(-c4cccc(Cl)c4)cc32)N=C1N (stereo not drawn) [Compound 197]
1 to 5	CN1OC2(CC(C3CCCc4ccccc43)Oc3ccc(-c4cccc(Cl)c4)cc32)N=C1N (stereo not drawn) [Compound 239]
0.1 to 0.5	CN1C(=O)[C@@]2(C[C@@]3(CCCOC3)Oc3ccc(-c4cc(Cl)cc(C#N)c4)cc32)N=C1N [Compound 263]
0.001 to 0.1	CN1C(=O)C2(CC(C3CCOC(C)(C)C3)Oc3ccc(-c4cc(C#N)ccc4F)cc32)N=C1N (stereo not drawn) [Compound 218]
0.001 to 0.1	CN1OC2(CC3(CCCc4ccccc4C3)Oc3ccc(-c4cccnc4)cc32)N=C1N (stereo not drawn) [Compound 181]
1 to 5	CC(C)C#Cc1ccc2c(c1)C1(CC3(CCCc4ccccc4C3)O2)N=C(N)N(C)O1 (stereo not drawn) [Compound 265]
1 to 5	CN1O[C@@]2(C[C@@]3(CCCc4ccccc4C3)Oc3ccc(-c4cccc(C#N)c4)cc32)N=C1N [Compound 209]
1 to 5	CN1O[C@@]2(C[C@H](C3CCCc4ccccc43)Oc3ccc(-c4ccc(F)c(Cl)c4)cc32)N=C1N (stereo partly drawn) [Compound 252]
1 to 5	CN1OC2(CC3(CCCc4ccccc4C3)Oc3ccc(-c4cc(F)cc(Cl)c4)cc32)N=C1N (stereo not drawn) [Compound 227]
1 to 5	CN1O[C@@]2(C[C@@H](C3CCCc4ccccc43)Oc3ccc(-c4ccc(F)c(Cl)c4)cc32)N=C1N (stereo partly drawn) [Compound 235]
0.1 to 0.5	CN1C(=O)C2(C[C@H](C3CCOC(C)(C)C3)Oc3ccc(-c4ccc(F)c(F)c4)cc32)N=C1N (stereo partly drawn) [Compound 254]
0.001 to 0.1	CN1C(=O)C2(CC(C3CCOC(C)(C)C3)Oc3ccc(-c4cc(C#N)cc(C(F)(F)F)c4)cc32)N=C1N (stereo not drawn) [Compound 213]
1 to 5	CN1OC2(CC(C3CCOC(C)(C)C3)Oc3ccc(-c4cc(F)cc(C#N)c4)cc32)N=C1N (stereo not drawn) [Compound 260]
0.5 to 1	CN1O[C@@]2(C[C@H](C3CCCc4ccccc43)Oc3ccc(-c4cccc(C#N)c4)cc32)N=C1N (stereo partly drawn) [Compound 247]
0.001 to 0.1	CN1C(=O)C2(CC(C3CCOC(C)(C)C3)Oc3ccc(-c4cc(F)cc(C(F)(F)F)c4)cc32)N=C1N (stereo not drawn) [Compound 195]
0.5 to 1	CN1C(=O)C2(CC(C3CCCOC3)Oc3ccc(-c4cccc(F)c4)cc32)N=C1N (stereo not drawn) [Compound 273]
0.5 to 1	COc1cc(F)cc(-c2ccc3c(c2)[C@]2(C[C@]4(CCCOC4)O3)N=C(N)N(C)C2=O)c1 [Compound 271]
0.001 to 0.1	CN1C(=O)C2(CC(C3CCOC(C)(C)C3)Oc3ccc(-c4cccc(OC(F)(F)F)c4)cc32)N=C1N (stereo not drawn) [Compound 184]
0.5 to 1	Cc1cc(Br)cc(-c2ccc3c(c2)C2(CC4(CCCOC4)O3)N=C(N)N(C)C2=O)c1F (stereo not drawn) [Compound 253]
0.5 to 1	CN1O[C@@]2(C[C@H]([C@@H]3CCOC(C)(C)C3)Oc3ccc(-c4cccc(C#N)c4)cc32)N=C1N [Compound 237]
0.001 to 0.1	CN1C(=O)C2(C[C@H]([C@H]3CCOC(C)(C)C3)Oc3ccc(-c4cccc(C#N)c4)cc32)N=C1N (stereo partly drawn) [Compound 230]
0.1 to 0.5	CN1C(=O)[C@@]2(C[C@]3(CCCOC3)Oc3ccc(-c4cccc(Cl)c4)cc32)N=C1N [Compound 224]
0.1 to 0.5	CN1C(=O)[C@@]2(C[C@]3(CCCOC3)Oc3ccc(-c4cc(F)cc(C#N)c4)cc32)N=C1N [Compound 250]
0.1 to 0.5	CN1C(=O)C2(CC(C3CCOC(C)(C)C3)Oc3ccc(-c4cc(F)cc(F)c4F)cc32)N=C1N (stereo not drawn) [Compound 229]
0.1 to 0.5	COc1cc(Cl)cc(-c2ccc3c(c2)[C@]2(C[C@@]4(CCCOC4)O3)N=C(N)N(C)C2=O)c1 [Compound 256]
